The results in this text go back to PubChem BioAssay (NCI).

Several values for one entry are separate records, joined by “and”; a condition that tells them apart may be missing. Identical values can stand only once.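 1) Cells in 96-well plates. 2) Compound, 48 h, 5 concentrations. 3) Linear interpolation between surrounding doses. 4) Unreached endpoint = highest concentration. At the GI50, growth is halved. Definition used: TGI = concentration required for complete inhibition of growth.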

Among the test systems are UACC-62 melanoma; OVCAR-3 ovarian; UACC-257 melanoma; K-562 leukemia; DLD-1 colon; HT29 colon; HOP-62 NSCLC; RPMI-8226 leukemia; SR leukemia; LXFL 529 NSCLC.
What all share (assay): inhibition of tumour cell growth, NCI panel, 48 h

As for `CCCC(=O)N[C@H]1C2C3CC4C5CC(C42)C1(C)C53` (some centres undefined), the TGI in the assay with UACC-62 melanoma, in the assay on OVCAR-3 ovarian, in the assay on UACC-257 melanoma, in the assay on K-562 leukemia, in the assay on DLD-1 colon and with HT29 colon was over 100 µM each time. The TGI in the assay on HOP-62 NSCLC, with RPMI-8226 leukemia and in the assay with SR leukemia was over 100 µM each time.

For `CC(C)CCCC(C)[C@H]1CCC2[C@@H]3CCC4Nc5c(cnn5-c5ccccc5)C[C@]4(C)C3CC[C@@]21C` (some centres undefined), the TGI in the assay on UACC-62 melanoma is 40.4 µM; in the assay with OVCAR-3 ovarian, over 100 µM; with UACC-257 melanoma, over 100 µM; in the assay with K-562 leukemia, over 100 µM; in the assay on DLD-1 colon it was over 100 µM; with HT29 colon, over 100 µM. The values for the TGI in the assay on HOP-62 NSCLC, in the assay with RPMI-8226 leukemia and with LXFL 529 NSCLC were 45.7 µM, over 100 µM and over 100 µM, respectively.

Regarding `CC(C)=CCC(OC(=O)C=C(C)C)C1=CC(=O)c2c(O)ccc(O)c2C1=O` (centres undefined), the GI50 in the assay on UACC-62 melanoma was 1.67 µM; in the assay on OVCAR-3 ovarian, 0.5 µM; in the assay on UACC-257 melanoma, 1.51 µM; with K-562 leukemia, 0.0709 µM; in the assay on HT29 colon it was 2.49 µM; in the assay with RPMI-8226 leukemia, 0.724 µM. Moreover, the GI50 in the assay with SR leukemia was 0.123 µM. Moreover, the TGI is 3.1 µM and 2.4 µM with UACC-62 melanoma; 2.07 µM and 2.62 µM in the assay with OVCAR-3 ovarian; 4.15 µM and 2.5 µM in the assay with UACC-257 melanoma; 1.13 µM and 1.35 µM in the assay with K-562 leukemia; 0.674 µM in the assay on DLD-1 colon; 8.41 µM and 4.43 µM in the assay on HT29 colon. Besides, the TGI in the assay on HOP-62 NSCLC is 25.7 µM and 24.4 µM; in the assay on SR leukemia it was over 100 µM.

Regarding `CC(=O)[O-].[Mn+3].[O-]c1ccccc1C=NCCNCCN=Cc1ccccc1[O-]`, the GI50 in the assay with UACC-62 melanoma, with OVCAR-3 ovarian, in the assay on UACC-257 melanoma, in the assay with K-562 leukemia, in the assay with HT29 colon and in the assay with LXFL 529 NSCLC was over 100 µM in each case. Also, the TGI in the assay with UACC-62 melanoma, in the assay on OVCAR-3 ovarian, in the assay with UACC-257 melanoma, with K-562 leukemia, with HT29 colon and with LXFL 529 NSCLC was over 100 µM throughout.

`O=c1ncccn1C1OC(CO)C(O)C1O` (centres undefined): the TGI with UACC-62 melanoma, with K-562 leukemia, in the assay with DLD-1 colon, in the assay with HT29 colon, in the assay on RPMI-8226 leukemia and with LXFL 529 NSCLC was over 100 µM each time.

As for `CN1CCc2c1nc(-c1ccc(Cl)cc1)c1c2N(C)CC1`, the TGI amounted to 25.7 µM with UACC-62 melanoma; 22.8 µM in the assay with OVCAR-3 ovarian; 32.7 µM in the assay on UACC-257 melanoma; 62.1 µM in the assay on K-562 leukemia; 82.4 µM in the assay with DLD-1 colon; 45.4 µM with HT29 colon. The TGI came out at 27.7 µM with HOP-62 NSCLC, 37.1 µM in the assay with RPMI-8226 leukemia and 77 µM with LXFL 529 NSCLC.

Regarding `CC(=O)OCC(=O)[C@@]12OC(C)(C)O[C@@H]1C[C@H]1[C@@H]3CC(C=O)=C4C=C(OCCCl)CC[C@]4(C)[C@@]3(F)[C@@H](O)C[C@@]12C`, the TGI in the assay on UACC-62 melanoma was over 100 µM; with OVCAR-3 ovarian, over 100 µM; in the assay with UACC-257 melanoma, 80.6 µM; with K-562 leukemia, over 100 µM; in the assay with DLD-1 colon, over 100 µM; in the assay on HT29 colon it was 36.8 µM. For the same compound, the TGI is 51.9 µM with HOP-62 NSCLC, over 100 µM in the assay with RPMI-8226 leukemia and over 100 µM in the assay with SR leukemia.

As for `NNC(=O)C(=O)N/N=C1\CCC(=O)CC1C(=O)CCC(=O)Nc1ccc(Cl)cc1` (centres undefined), the TGI in the assay with UACC-62 melanoma, with OVCAR-3 ovarian, with UACC-257 melanoma, in the assay with K-562 leukemia, in the assay on DLD-1 colon and in the assay with HT29 colon was over 100 µM each time. The TGI with RPMI-8226 leukemia and with LXFL 529 NSCLC was over 100 µM throughout.

In the case of `N.N.N.N.N.O=[N+]([O-])[O-].[Co+3].[O-][Cl+3]([O-])([O-])[O-]`, the GI50 in the assay with UACC-62 melanoma, with OVCAR-3 ovarian, with UACC-257 melanoma, in the assay on K-562 leukemia, in the assay with DLD-1 colon and with HT29 colon was over 100 µM in each case. The GI50 in the assay on HOP-62 NSCLC, in the assay with RPMI-8226 leukemia and with LXFL 529 NSCLC was over 100 µM each time. Further, the TGI in the assay with UACC-62 melanoma, in the assay with OVCAR-3 ovarian, in the assay on UACC-257 melanoma, in the assay on K-562 leukemia, in the assay on DLD-1 colon and in the assay with HT29 colon was over 100 µM throughout. Moreover, the TGI in the assay on HOP-62 NSCLC, in the assay with RPMI-8226 leukemia and with LXFL 529 NSCLC was over 100 µM in each case.

With `C[C@]12CC[C@H](O)CC1=CC[C@@H]1C2CC[C@]2(C)Nc3c(cnn3-c3ccccc3)CC12` (some centres undefined), the TGI in the assay with UACC-62 melanoma is 17.4 µM; in the assay on OVCAR-3 ovarian, 40.2 µM; in the assay on UACC-257 melanoma, 15 µM; in the assay on K-562 leukemia, 10.2 µM; with DLD-1 colon, 35.7 µM; with HT29 colon, 4.88 µM. The TGI with HOP-62 NSCLC came to 8.81 µM; in the assay with RPMI-8226 leukemia it was 1.49 µM; in the assay with LXFL 529 NSCLC, 19.7 µM.

On to `N/N=C1\C(=O)N(c2ccc(Cl)cc2Cl)C(=O)C(=O)C1c1nc2ccccc2o1` (centres undefined), for which the TGI with UACC-62 melanoma, in the assay with OVCAR-3 ovarian, with UACC-257 melanoma, in the assay on K-562 leukemia, in the assay on DLD-1 colon and with HT29 colon was over 100 µM each time. For the same compound, the TGI with HOP-62 NSCLC, in the assay on RPMI-8226 leukemia and in the assay on LXFL 529 NSCLC was over 100 µM in each case.

Take `C#Cc1c(C)c(/C=C/C(C)=C/C(=O)OC)n(C)c1C`: the TGI in the assay on UACC-62 melanoma, with OVCAR-3 ovarian, with UACC-257 melanoma, with K-562 leukemia, with DLD-1 colon and in the assay on HT29 colon was over 100 µM in each case. The TGI in the assay on HOP-62 NSCLC, with RPMI-8226 leukemia and in the assay on LXFL 529 NSCLC was over 100 µM throughout.

Consider `O=C(O)CCNCCCCNCCC(=O)O`, for which the TGI in the assay with UACC-62 melanoma, with OVCAR-3 ovarian, with K-562 leukemia, in the assay with DLD-1 colon, with HT29 colon and in the assay on HOP-62 NSCLC was over 100 µM in each case. The TGI with RPMI-8226 leukemia and in the assay with LXFL 529 NSCLC was over 100 µM in each case.

Consider `C=CCO/N=C(\OC(=O)c1ccc([N+](=O)[O-])cc1)c1ccccc1`, for which the TGI with UACC-62 melanoma, with OVCAR-3 ovarian, in the assay on K-562 leukemia, with DLD-1 colon, with HT29 colon and with HOP-62 NSCLC was over 100 µM in each case. The TGI with RPMI-8226 leukemia and in the assay with LXFL 529 NSCLC was over 100 µM in each case.

In the case of `C=CCC1=C(C)C[C@@H]2CCC(=O)C=C12`, the TGI in the assay with UACC-62 melanoma, with OVCAR-3 ovarian, in the assay with UACC-257 melanoma, in the assay with K-562 leukemia, in the assay on HT29 colon and with HOP-62 NSCLC was over 100 µM in each case. For the same compound, the TGI in the assay on RPMI-8226 leukemia and in the assay on LXFL 529 NSCLC was over 100 µM in each case.

In the case of `COc1ccc(-c2nc(-c3nc4ccc(F)cc4[nH]3)c3ccccn23)cc1`, the GI50 with UACC-62 melanoma is 5.41 µM; in the assay on OVCAR-3 ovarian, 6.14 µM; with UACC-257 melanoma it was 9.15 µM; in the assay with K-562 leukemia, 14 µM; in the assay on HT29 colon, 7.13 µM; in the assay on HOP-62 NSCLC, 7.41 µM. Moreover, the figures for the GI50 in the assay on RPMI-8226 leukemia and with SR leukemia were 2.86 µM and 6.63 µM, respectively. In addition, the TGI with UACC-62 melanoma is 36.1 µM; in the assay with OVCAR-3 ovarian it was 27.1 µM; in the assay with UACC-257 melanoma, 57.2 µM; with K-562 leukemia it was over 100 µM; in the assay with HT29 colon it was over 100 µM; in the assay on HOP-62 NSCLC, 32.3 µM. Besides, the TGI in the assay with RPMI-8226 leukemia and with SR leukemia was over 100 µM in each case.

For `Cc1cccc(C)c1NC(=O)CCc1nc(=S)[nH][nH]1`, the TGI in the assay on UACC-62 melanoma, with K-562 leukemia, in the assay on DLD-1 colon, in the assay on HOP-62 NSCLC, with RPMI-8226 leukemia and in the assay on LXFL 529 NSCLC was over 100 µM in each case.

For `COc1ccc(C(O)c2cc3c(N)c(C(=O)Nc4cccc(Cl)c4)sc3nc2C)cc1` (centres undefined), the GI50 in the assay with UACC-62 melanoma is 2.14 µM; in the assay with OVCAR-3 ovarian, 0.843 µM; in the assay with UACC-257 melanoma it was 8.6 µM; in the assay with K-562 leukemia it was 1.03 µM; in the assay on HT29 colon, 1.08 µM; in the assay with HOP-62 NSCLC, 0.617 µM. In addition, the GI50 was 3.21 µM in the assay with RPMI-8226 leukemia and 0.339 µM with SR leukemia. Further, the TGI in the assay with UACC-62 melanoma was over 80.2 µM; with OVCAR-3 ovarian, 2.34 µM; with UACC-257 melanoma, 81 µM; in the assay with K-562 leukemia, over 37.5 µM; in the assay on HT29 colon, over 33.4 µM; with HOP-62 NSCLC, 19.9 µM. In the assay on RPMI-8226 leukemia, this compound yielded a TGI of over 100 µM.

Take `Cc1cc(O)c(C2=NN(c3ccc(S(N)(=O)=O)cc3)C(c3ccc(Cl)cc3)C2)c(C)c1Cl` (centres undefined): the GI50 in the assay with UACC-62 melanoma was 3.49 µM; in the assay with OVCAR-3 ovarian, 4.21 µM; in the assay on UACC-257 melanoma it was 11.9 µM; with K-562 leukemia, 2.24 µM; with HT29 colon, 3.3 µM; in the assay with HOP-62 NSCLC, 10.4 µM. Also, the GI50 was 3.99 µM with RPMI-8226 leukemia and 1.28 µM with SR leukemia. Moreover, the TGI is 15.1 µM in the assay with UACC-62 melanoma; 15.7 µM in the assay on OVCAR-3 ovarian; 26.8 µM in the assay with UACC-257 melanoma; 11.5 µM with K-562 leukemia; 11 µM in the assay on HT29 colon; 23.3 µM in the assay with HOP-62 NSCLC. Moreover, the TGI with RPMI-8226 leukemia was 17.8 µM; in the assay with SR leukemia, 5.02 µM.
